Test results published in the NIST ThermoML archive (doi:10.1021/je900597n).
“And” between values parts separate entries of the source, which are not always exact repeats. Equal values may be shown once.

Tests used:
[1] = xn = mol fraction of the nth substance listed; settings: 101 kPa, Liquid
[2] = 101 kPa, Liquid; for speed of sound: Pulse-echo method

CCCN [propan-1-amine] + COC(C)(C)C
[1]
Settings	mass density, 288.15 K [kg/m3]	mass density, 293.15 K [kg/m3]	mass density, 298.15 K [kg/m3]	mass density, 303.15 K [kg/m3]	mass density, 308.15 K [kg/m3]	speed of sound, 288.15 K [m/s]	speed of sound, 293.15 K [m/s]	speed of sound, 298.15 K [m/s]	speed of sound, 303.15 K [m/s]	speed of sound, 308.15 K [m/s]
x2 = 0	725.08	719.859	714.586	709.269	703.911	1266.1	1242	1218	1194	1169.9
x2 = 0.0709	727.856	722.621	717.583	712.014	706.643	1251.4	1227.2	1203.1	1179.1	1155.3
x2 = 0.0971	729.03	723.784	718.729	713.152	707.762	1244	1220	1196	1172.2	1148.2
x2 = 0.2112	733	727.745	722.617	717.065	711.678	1214.4	1190.5	1166.5	1142.9	1119.1
x2 = 0.2915	734.914	729.567	724.408	718.869	713.452	1204.2	1180.3	1156.2	1132.6	1109
x2 = 0.3956	737.188	731.938	726.763	721.277	715.895	1174.4	1150.7	1127	1103.4	1079.8
x2 = 0.5551	740.109	734.863	729.642	724.214	718.801	1146	1122.5	1098.9	1075.4	1052.2
x2 = 0.7171	742.564	737.327	732.071	726.691	721.338	1120.6	1097.1	1073.7	1050.5	1027.3
x2 = 0.7747	743.456	738.22	732.941	727.578	722.269	1111.6	1088	1064.5	1041	1017.8
x2 = 0.8604	744.503	739.27	733.994	728.673	723.302	1101.2	1077.8	1054.2	1030.9	1007.5
x2 = 0.9268	745.6	740.382	735.117	729.806	724.452	1094.2	1070.7	1047.5	1024.2	1001.1

CCCNCCC [dipropylamine]
[2]
Settings	mass density [kg/m3]	speed of sound [m/s]
288.15 K	745.064	1235.1
293.15 K	740.501	1213.4
298.15 K	735.924	1191.9
303.15 K	731.333	1170.4
308.15 K	726.732	1149

COC(C)(C)C [2-methoxy-2-methylpropane] + CCCN
[1], x1 = 1
Settings	mass density [kg/m3]	speed of sound [m/s]
288.15 K	747.273	1086.6
293.15 K	742.072	1063.4
298.15 K	736.826	1040.3
303.15 K	731.532	1017.4
308.15 K	726.185	994.68

COC(C)(C)C [2-methoxy-2-methylpropane] + CCCNCCC
[1], Pulse-echo method, x1 = 1
Settings	speed of sound [m/s]
288.15 K	1086.9
293.15 K	1063.4
298.15 K	1040.3
303.15 K	1017.4
308.15 K	994.68

[1], x1 = 1
Settings	mass density [kg/m3]
288.15 K	747.273
293.15 K	742.072
298.15 K	736.826
303.15 K	731.532
308.15 K	726.185

COC(C)(C)C [2-methoxy-2-methylpropane]
[2]
Settings	mass density [kg/m3]	speed of sound
288.15 K	747.273	1086.6 m/s and 1086.9 m/s
293.15 K	742.072	1063.4 m/s
298.15 K	736.826	1040.3 m/s
303.15 K	731.532	1017.4 m/s
308.15 K	726.185	994.68 m/s

CCCN [propan-1-amine]
[2]
Settings	mass density [kg/m3]	speed of sound [m/s]
288.15 K	725.08	1266.1
293.15 K	719.859	1242
298.15 K	714.586	1218
303.15 K	709.269	1194
308.15 K	703.911	1169.9
